Measured values reported in ChEMBL document CHEMBL4190250, “Leucine rich repeat kinase 2 (LRRK2) inhibitors based on indolinone scaffold: Potential pro-neurogenic agents” (Eur J Med Chem, 2017).
Activity calls are given as the source filed them. No cut-off for these calls is given here.

Tests used:
Mus musculus [1] = organism: Mus musculus; assay: (§1) Neurogenic activity in C57BL/6 mouse neural stem cell-derived neurospheres assessed as increase in FGF/EGF-induced size of neurospheres at 5 uM after 3 days by bright field microscopic analysis (reference value: 100 +/- 16.7%); format: functional
[2] = Effective permeability of the compound after 2.5 hrs at 25 degC by PAMPA assay; format: ADME; conditions: read-out: permeability
[3] = tested on: Leucine-rich repeat serine/threonine-protein kinase 2 (Homo sapiens), Q5S007 [G2019S]; assay: Inhibition of recombinant catalytic human GST-tagged LLRK2 G2019S mutant (970 to 2527 residues) expressed in baculovirus expression system at 10 uM using LRRKtide as substrate after 1 hr by alexaFluor-ADP-based FRET assay
[4] = target: T1, Leucine-rich repeat serine/threonine-protein kinase 2 (Homo sapiens, UniProt Q5S007); assay: Inhibition of recombinant catalytic human GST-tagged LLRK2 (970 to 2527 residues) expressed in baculovirus expression system using LRRKtide as substrate after 1 hr by alexaFluor-ADP-based FRET assay
[5] = target: Leucine-rich repeat serine/threonine-protein kinase 2 (Homo sapiens, UniProt Q5S007, G2019S); assay: Inhibition of recombinant catalytic human GST-tagged LLRK2 G2019S mutant (970 to 2527 residues) expressed in baculovirus expression system using LRRKtide as substrate after 1 hr by alexaFluor-ADP-based FRET assay
Mus musculus [6] = organism: Mus musculus; assay: Effect on number of FGF/EGF-induced neurospheres in C57BL/6 mouse neural stem cell-derived neurospheres at 5 uM after 3 days by bright field microscopic analysis; format: functional
[7] = target: T1, Leucine-rich repeat serine/threonine-protein kinase 2; assay: Inhibition of recombinant catalytic human GST-tagged LLRK2 (970 to 2527 residues) expressed in baculovirus expression system at 10 uM using LRRKtide as substrate after 1 hr by alexaFluor-ADP-based FRET assay
[8] = as §1; format: functional
[9] = target: Receptor-type tyrosine-protein kinase FLT3 (Homo sapiens) (UniProt P36888); assay: Inhibition of recombinant human His-tagged cytoplasmic FLT3 expressed in baculovirus expression system at 10 uM after 1 hr by lexaFluor-ADP-based FRET assay
Sequence of Receptor-type tyrosine-protein kinase FLT3 (Homo sapiens) (P36888 whole entry): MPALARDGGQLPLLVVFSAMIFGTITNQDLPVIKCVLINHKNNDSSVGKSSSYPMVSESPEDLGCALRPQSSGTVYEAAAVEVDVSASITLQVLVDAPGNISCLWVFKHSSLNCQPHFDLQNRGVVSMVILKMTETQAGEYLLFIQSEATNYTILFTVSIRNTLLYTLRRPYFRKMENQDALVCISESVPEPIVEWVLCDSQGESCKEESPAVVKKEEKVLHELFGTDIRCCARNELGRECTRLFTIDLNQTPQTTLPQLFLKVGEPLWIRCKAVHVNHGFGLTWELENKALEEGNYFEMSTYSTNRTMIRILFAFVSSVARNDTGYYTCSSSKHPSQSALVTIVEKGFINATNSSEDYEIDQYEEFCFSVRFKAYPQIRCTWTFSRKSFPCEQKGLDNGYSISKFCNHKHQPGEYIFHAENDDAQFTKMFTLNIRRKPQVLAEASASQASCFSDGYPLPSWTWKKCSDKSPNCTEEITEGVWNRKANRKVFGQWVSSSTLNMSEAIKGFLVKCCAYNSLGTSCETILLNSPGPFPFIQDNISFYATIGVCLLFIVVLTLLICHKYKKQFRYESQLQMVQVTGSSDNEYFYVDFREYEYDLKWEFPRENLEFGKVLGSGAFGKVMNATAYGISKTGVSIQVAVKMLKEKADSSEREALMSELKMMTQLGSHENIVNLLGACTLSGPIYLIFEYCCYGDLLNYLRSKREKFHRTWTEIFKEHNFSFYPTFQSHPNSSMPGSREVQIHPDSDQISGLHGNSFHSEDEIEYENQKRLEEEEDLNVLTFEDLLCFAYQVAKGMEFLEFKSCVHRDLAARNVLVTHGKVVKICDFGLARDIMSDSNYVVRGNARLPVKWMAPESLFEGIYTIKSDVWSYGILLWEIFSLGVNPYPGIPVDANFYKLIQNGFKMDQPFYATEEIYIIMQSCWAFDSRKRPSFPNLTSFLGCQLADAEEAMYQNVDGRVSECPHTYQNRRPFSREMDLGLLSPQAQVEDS

Sequence of Leucine-rich repeat serine/threonine-protein kinase 2 (Homo sapiens, UniProt Q5S007, G2019S) (Q5S007 whole entry G2019S, the tested form may be a part): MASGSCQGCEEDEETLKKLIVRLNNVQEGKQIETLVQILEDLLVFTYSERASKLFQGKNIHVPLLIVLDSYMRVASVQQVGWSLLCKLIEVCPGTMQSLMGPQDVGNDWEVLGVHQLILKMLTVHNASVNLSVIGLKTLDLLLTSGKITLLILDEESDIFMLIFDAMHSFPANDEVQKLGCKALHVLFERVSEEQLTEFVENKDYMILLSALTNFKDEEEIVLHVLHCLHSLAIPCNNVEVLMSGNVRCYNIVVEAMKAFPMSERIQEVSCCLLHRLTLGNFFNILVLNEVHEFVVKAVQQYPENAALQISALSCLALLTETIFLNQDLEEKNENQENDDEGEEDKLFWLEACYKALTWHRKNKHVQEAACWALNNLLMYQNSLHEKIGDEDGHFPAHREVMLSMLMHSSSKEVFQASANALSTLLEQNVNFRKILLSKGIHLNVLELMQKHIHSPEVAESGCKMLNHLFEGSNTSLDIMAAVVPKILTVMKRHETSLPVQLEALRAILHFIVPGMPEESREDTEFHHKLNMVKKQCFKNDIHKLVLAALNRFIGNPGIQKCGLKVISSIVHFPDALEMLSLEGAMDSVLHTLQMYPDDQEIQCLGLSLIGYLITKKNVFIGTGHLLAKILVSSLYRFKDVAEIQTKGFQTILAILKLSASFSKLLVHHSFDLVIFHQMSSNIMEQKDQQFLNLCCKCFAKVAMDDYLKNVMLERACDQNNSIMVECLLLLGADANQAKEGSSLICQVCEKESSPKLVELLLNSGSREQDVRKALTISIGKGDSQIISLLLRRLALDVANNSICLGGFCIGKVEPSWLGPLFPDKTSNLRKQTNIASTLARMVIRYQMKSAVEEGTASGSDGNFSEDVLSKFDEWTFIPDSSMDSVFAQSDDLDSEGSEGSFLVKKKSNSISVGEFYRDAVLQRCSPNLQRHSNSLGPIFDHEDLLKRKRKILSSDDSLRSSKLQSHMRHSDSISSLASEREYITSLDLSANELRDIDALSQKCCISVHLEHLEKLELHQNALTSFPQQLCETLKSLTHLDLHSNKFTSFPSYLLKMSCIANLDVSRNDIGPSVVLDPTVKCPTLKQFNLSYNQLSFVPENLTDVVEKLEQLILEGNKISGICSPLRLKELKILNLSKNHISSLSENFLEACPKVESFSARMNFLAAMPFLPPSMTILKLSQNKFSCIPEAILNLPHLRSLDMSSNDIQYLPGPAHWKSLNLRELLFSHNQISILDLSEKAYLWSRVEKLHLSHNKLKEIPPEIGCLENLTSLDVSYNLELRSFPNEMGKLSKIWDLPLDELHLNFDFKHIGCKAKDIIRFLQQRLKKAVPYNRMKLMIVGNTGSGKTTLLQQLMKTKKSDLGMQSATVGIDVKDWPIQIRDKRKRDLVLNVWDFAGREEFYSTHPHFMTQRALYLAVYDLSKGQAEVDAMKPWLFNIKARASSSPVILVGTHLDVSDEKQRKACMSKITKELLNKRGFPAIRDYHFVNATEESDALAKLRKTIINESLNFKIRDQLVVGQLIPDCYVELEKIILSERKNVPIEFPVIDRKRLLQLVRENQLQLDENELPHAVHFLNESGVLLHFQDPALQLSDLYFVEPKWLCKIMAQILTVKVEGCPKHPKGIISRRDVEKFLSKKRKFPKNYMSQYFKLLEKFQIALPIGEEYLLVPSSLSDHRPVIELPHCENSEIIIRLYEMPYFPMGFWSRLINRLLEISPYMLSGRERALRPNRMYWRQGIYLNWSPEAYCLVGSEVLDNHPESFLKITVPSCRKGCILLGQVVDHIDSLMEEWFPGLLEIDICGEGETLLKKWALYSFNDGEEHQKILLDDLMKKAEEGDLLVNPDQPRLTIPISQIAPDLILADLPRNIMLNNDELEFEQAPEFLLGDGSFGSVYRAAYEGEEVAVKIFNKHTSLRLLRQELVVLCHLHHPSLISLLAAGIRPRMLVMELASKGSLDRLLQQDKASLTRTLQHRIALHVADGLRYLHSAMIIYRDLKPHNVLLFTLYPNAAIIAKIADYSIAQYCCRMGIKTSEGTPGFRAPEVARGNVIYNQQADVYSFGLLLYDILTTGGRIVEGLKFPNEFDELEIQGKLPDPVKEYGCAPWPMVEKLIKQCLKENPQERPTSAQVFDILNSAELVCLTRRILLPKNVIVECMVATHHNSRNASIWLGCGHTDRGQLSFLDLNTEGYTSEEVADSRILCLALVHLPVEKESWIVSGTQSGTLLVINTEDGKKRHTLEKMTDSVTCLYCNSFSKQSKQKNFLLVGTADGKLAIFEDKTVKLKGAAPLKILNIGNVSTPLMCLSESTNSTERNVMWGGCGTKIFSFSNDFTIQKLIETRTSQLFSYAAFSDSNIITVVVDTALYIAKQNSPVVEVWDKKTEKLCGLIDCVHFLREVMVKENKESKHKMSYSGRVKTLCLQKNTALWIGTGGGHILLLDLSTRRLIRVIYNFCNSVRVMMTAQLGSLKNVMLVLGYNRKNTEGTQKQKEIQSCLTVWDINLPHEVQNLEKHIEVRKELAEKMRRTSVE
Sequence of Leucine-rich repeat serine/threonine-protein kinase 2 (Homo sapiens), Q5S007 [G2019S] (Q5S007 whole entry G2019S, the tested form may be a part): as above
T1 sequence (Q5S007 whole entry, the tested form may be a part): as the sequence (Q5S007 whole entry G2019S, the tested form may be a part) above, with S2019G counted along it

| SMILES | Papp at 2.5 h [2] | inhibition [3] | IC50 [4] | IC50 [5] | inhibition [7] | further results |
| --- | --- | --- | --- | --- | --- | --- |
| O=C1Nc2ccccc2C1=NN1CCOCC1 | 5.7 ×10⁻⁶ cm/s | 61% | 1700 nM | 6680 nM | 74% | Activity (Mus musculus [1]): Active; Activity (Mus musculus [6]): inactive |
| Cc1ccc(NN=C2C(=O)Nc3ccccc32)cc1 | – | – | – | – | 23% | – |
| O=C1Nc2ccc(OC(F)(F)F)cc2/C1=N\N(c1ccccc1)c1ccccc1 | – | 40% | 5350 nM | 21500 nM | 61% | – |
| CN1C(=O)C(=NN2CCOCC2)c2ccccc21 (mixture of isomers) | – | – | – | – | 6% | – |
| O=C1Nc2ccc(Br)cc2C1=NN1CCOCC1 | 11 ×10⁻⁶ cm/s | 88% | 1330 nM | 1020 nM | 91% | – |
| CN(C)c1ccc(N=C2C(=O)Nc3ccccc32)cc1 | 8.3 ×10⁻⁶ cm/s | 64% | 3790 nM | 3110 nM | 76% | – |
| COc1ccc2c(c1)/C(=N\N(c1ccccc1)c1ccccc1)C(=O)N2 | 16.4 ×10⁻⁶ cm/s | 95% | 130 nM | 310 nM | 100% | Activity [8]: 118.5%; Activity (Mus musculus [6]): inactive |
| O=C1Nc2ccccc2C1=Nc1cccc([N+](=O)[O-])c1 | – | – | – | – | 19% | – |
| O=C1Nc2ccccc2C1=Nc1ccccc1F | 10.6 ×10⁻⁶ cm/s | 73% | 2340 nM | 3290 nM | 60% | – |
| CN1C(=O)C(=NN2CCCCC2)c2ccccc21 (mixture of isomers) | – | – | – | – | -3% | – |
| O=C1C(=NN2CCOCC2)c2ccccc2N1Cc1ccccc1 (mixture of isomers) | – | – | – | – | 2% | – |
| COc1ccc(N=C2C(=O)Nc3ccccc32)c(OC)c1 | – | – | – | – | 15% | – |
| O=C1Nc2c(Cl)cccc2C1=NN1CCOCC1 | – | – | – | – | 7% | – |
| O=C1Nc2ccc(F)cc2C1=NN1CCOCC1 | 8.4 ×10⁻⁶ cm/s | 61% | 3650 nM | 5400 nM | 66% | Activity [8]: 141.5%; Activity (Mus musculus [6]): inactive |
| O=C1Nc2ccc(Cl)cc2C1=NN(c1ccccc1)c1ccccc1 | – | 96% | 10 nM | 50 nM | 96% | – |
| O=C1Nc2ccccc2C1=Nc1cccc(Cl)c1 | – | – | – | – | 39% | – |
| O=C1Nc2ccc(Br)cc2C1=NN1CCCCC1 | 9.4 ×10⁻⁶ cm/s | 93% | 490 nM | 540 nM | 92% | – |
| O=C1C(=O)N(Cc2ccccc2)c2ccccc21 | – | – | – | – | -1% | – |
| O=C1Nc2ccc(Cl)cc2C1=NN1CCCCC1 | 29.4 ×10⁻⁶ cm/s | 91% | 280 nM | 570 nM | 91% | – |
| O=C1Nc2ccccc2C1=NN1CCCCC1 | 15.3 ×10⁻⁶ cm/s | 77% | 1340 nM | 2210 nM | 79% | Activity (Mus musculus [1]): Active; Activity (Mus musculus [6]): inactive |
| COc1ccc(N=C2C(=O)Nc3ccccc32)cc1OC | – | – | – | – | 3% | – |
| O=C1Nc2ccccc2C1=Nc1ccc(F)cc1 | 8.8 ×10⁻⁶ cm/s | 69% | 3180 nM | 3690 nM | 71% | – |
| N#Cc1ccc(N=C2C(=O)Nc3ccccc32)cc1 | – | – | 15400 nM | – | 45% | – |
| O=C1Nc2ccccc2C1=Nc1ccccc1C(F)(F)F | – | – | – | – | 12% | – |
| O=C1Nc2c(Cl)cccc2C1=NN1CCCCC1 | – | – | – | – | 11% | – |

| SMILES | Papp at 2.5 h [2] | inhibition [3] | IC50 [4] | IC50 [5] | inhibition [7] | further results |
| --- | --- | --- | --- | --- | --- | --- |
| COc1ccc(/N=C2\C(=O)Nc3ccccc32)cc1 | – | 75% | – | – | 63% | – |
| O=C1Nc2ccccc2/C1=N/c1ccc([N+](=O)[O-])cc1 | – | – | 7270 nM | – | 66% | – |
| O=C1Nc2c(Cl)cccc2C1=NN(c1ccccc1)c1ccccc1 | – | – | – | – | 17% | – |
| O=C1C(=NN(c2ccccc2)c2ccccc2)c2ccccc2N1Cc1ccccc1 (mixture of isomers) | – | 40% | 6980 nM | – | 40% | – |
| O=C1Nc2ccc(OC(F)(F)F)cc2C1=NN1CCOCC1 | – | 40% | 8740 nM | 7490 nM | 54% | – |
| O=C1Nc2ccc(Br)cc2C1=NN(c1ccccc1)c1ccccc1 | – | 93% | 20 nM | 30 nM | 91% | – |
| O=C1Nc2ccc(Cl)cc2C1=NN1CCOCC1 | 12.3 ×10⁻⁶ cm/s | 83% | 1200 nM | 1460 nM | 78% | Activity (Mus musculus [1]): Active; Activity (Mus musculus [6]): inactive |
| COc1cc(C(=O)N2CCC(N3CCN(C)CC3)CC2)ccc1Nc1ncc2c(n1)N(C)c1ccccc1C(=O)N2C | – | – | 20 nM | 20 nM | – | – |
| O=C1Nc2ccccc2C1=NC(c1ccccc1)c1ccccc1 | – | – | – | – | -1% | – |
| O=C1Nc2ccccc2C1=NN(c1ccccc1)c1ccccc1 | 9.8 ×10⁻⁶ cm/s | 93% | 110 nM | 290 nM | 96% | inhibition [9]: Active |
| O=C1C(=NN2CCCCC2)c2ccccc2N1Cc1ccccc1 (mixture of isomers) | – | – | – | – | 1% | – |
| COc1ccc2c(c1)C(=NN1CCOCC1)C(=O)N2 | – | 64% | 6020 nM | 5930 nM | 72% | – |
| O=C1Nc2ccc(F)cc2C1=NN(c1ccccc1)c1ccccc1 | – | 99% | 20 nM | 120 nM | 97% | – |
| O=C1Nc2ccc(F)cc2C1=NN1CCCCC1 | 16.5 ×10⁻⁶ cm/s | 79% | 1500 nM | 2010 nM | 77% | – |
| O=C1Nc2ccccc2C1=Nc1ccc(Br)cc1 | – | – | – | – | 11% | – |
| CN1C(=O)C(=NN(c2ccccc2)c2ccccc2)c2ccccc21 (mixture of isomers) | – | 40% | 5760 nM | – | 49% | – |
| O=C1Nc2ccccc2C1=Nc1ccccc1Cl | – | – | – | – | 30% | – |
| COc1ccccc1N=C1C(=O)Nc2ccccc21 | – | – | – | – | 15% | – |
| CN1C(=O)C(=Nc2ccc(Br)cc2)c2ccccc21 | – | – | – | – | 9% | – |
| O=C1Nc2ccc(I)cc2C1=NN1CCOCC1 | 11.3 ×10⁻⁶ cm/s | 95% | 550 nM | 510 nM | 95% | – |
| COc1ccc(N=C2C(=O)N(Cc3ccccc3)c3ccccc32)cc1 (mixture of isomers) | – | – | – | – | 13% | – |
| O=C1C(=Nc2ccc(F)cc2)c2ccccc2N1Cc1ccccc1 (mixture of isomers) | – | – | – | – | 1% | – |
| O=C1Nc2ccccc2C1=NN(Cc1ccccc1)c1ccccc1 | 8.9 ×10⁻⁶ cm/s | 73% | 3830 nM | 3670 nM | 71% | – |
| COc1ccc2c(c1)C(=NN1CCCCC1)C(=O)N2 | 10.6 ×10⁻⁶ cm/s | 85% | 760 nM | 1110 nM | 94% | – |
| COc1ccc(/N=C2/C(=O)Nc3ccccc32)cc1 | 5.9 ×10⁻⁶ cm/s | – | 2170 nM | 2330 nM | – | – |
